Source: patent US6872738B1, “Product comprising at least a no synthase inhibiting substance associated with at least a phospholipase a2 inhibiting substance” (Societe de Conseils de Recherches et D'Applications …, priority 1999, dated 2005)
Several values for one entry are separate records, joined by “and”; a condition that tells them apart may be missing. Equal entries are not always repeated.

Key:
Experiment in all cases: carrageenan-induced rat's paw edema
Type in all cases: in vivo, Male Sprague Dawley rats
[1] = tested on: carrageenan-induced rat's paw edema; conditions: for % inflammation: 30 minutes before 1% carrageenan, paw volume 3 hours after injection, 8 rats; for protection of the animal from the edema caused by carrageenan (in words): ip, doses of the groups of the respective example
Experimental: (§1) The activity of the compounds of the invention was evaluated in vivo on a model of carrageenan-induced rat's paw edema.
(§2) Male Sprague Dawley rats (Charles River) weighing 170 to 180 g on the day of the experiment are kept indoors for 5 to 8 days under animal husbandry conditions and are starved for 18 hours on a mesh floor before and during the experiment. The groups are constituted by 8 animals. The products are administered by intraperitoneal route (ip, 2 ml/kg), 30 minutes before the 1% Carrageenan is injected into the sole of the rats' rear right paw. The volume of the paw corresponding to the edema is measured using a water plethysmometer (Ugo Basile, APELEX) before the injection of carrageenan (t0) and 3 hours after the injection. The volume of the paw allows determination of the % of inflammation ((volume of the paw at time t after carrageenan−volume of the same paw at time to before injection of the products/volume of the paw at time t0)×100). […] This effectiveness is determined statistically by a Student test.

[2] = tested on: carrageenan-induced rat's paw edema; design: key: IS: Insignificant result; *: significant result; conditions: Example 4; 30 mg/kg ip
Experimental: as §1, §2

[3] = tested on: carrageenan-induced rat's paw edema; design: key: IS: insignificant result; ***: highly significant result
Experimental: as §1, §2

Row | Structure (SMILES) | % inflammation ([1]; 30 mg/kg ip) | protection of the animal from the edema caused by carrageenan (in words) [1] | significance of % inflammation (Student test) [2] | further results
1 | CN(Cc1nc(-c2cc(C(C)(C)C)c(O)c(C(C)(C)C)c2)cs1)c1ccc(NC(=N)c2cccs2)cc1.Cl [4-[3,5-bis(1,1-dimethylethyl)-4-hydroxyphenyl]-N-{4-[(imino(2-thienyl)methyl)amino]phenyl}-N-methyl-2-thiazolemethanamine hydrochloride] | 52.8 ± 4.0% | inactive | IS | 
2 | O=[N+]([O-])c1cccc2cn[nH]c12 [7-nitroindazole] |  | inactive |  | % inflammation ([1]; 25 mg/kg ip): 72.5 ± 16.1%; significance of % inflammation (Student test) ([3]; Example 1, 25 mg/kg ip): IS
3 | N=C(N)NN [aminoguanidine] |  | inactive |  | % inflammation ([1]; 400 mg/kg ip): 53.1 ± 3.4% and 60.7 ± 7.5%; significance of % inflammation (Student test) ([3]; Example 2, 400 mg/kg ip): IS; significance of % inflammation (Student test) ([3]; Example 3, 400 mg/kg ip): IS
4 | COc1cccc2c1cc([N+](=O)[O-])c1c(C(=O)O)cc3c(c12)OCO3 [aristolochic acid] | 68 ± 5.1% | inactive |  | significance of % inflammation (Student test) ([3]; Example 3, 30 mg/kg ip): IS
5 | CCN(CC)CCCC(C)Nc1c2ccc(Cl)cc2nc2ccc(OC)cc12 (stereo not drawn) [mepacrine] | 64.5 ± 3.7% and 53.9 ± 3.2% and 51.9 ± 2.7% | inactive | IS | significance of % inflammation (Student test) ([3]; Example 1, 30 mg/kg ip): IS; significance of % inflammation (Student test) ([3]; Example 2, 30 mg/kg ip): IS
